Results as given in US9920096B2, “Bradykinin receptor modulators and use thereof” (Sepia Pesquisa e Desenvolvimento, priority 2013, dated 2018).

What was measured:
HUVEC cells = assay: Intracellular calcium measurement in HUVEC cells (Fluo-3 fluorescence); type: cell-based, Human; conditions: for Bradykinin receptor activity indicated by calcium entry data: FIG. 5A-E, with and without B1/B2 antagonists
Protocol: The intracellular calcium measurement was performed according to the method described in Bagnaresi P et al, 2012 and Lungato L, et al., 2012.
Human umbilical vein endothelial cells were cultured in RPMI 1640 (GIBCO) containing 10% heat-inactivated fetal bovine serum (FBS), 24 mM sodium bicarbonate, […] gentamicin, 10 mM HEPES, pH 7.4 at 37° C. in a 5% CO2 humidified atmosphere. 5×10^4 cells were plated on 60 mm dishes (Costar 3260), and incubated in culture medium containing 5 μM Fluo-3 AM (Invitrogen Corporation, CA) for 40 min at 37° C. in a buffer containing the channel blocker Probenecid (40 μM), followed by 3 washes with culture medium to discard remaining extracellular probe. The cells were then placed into a culture chamber at 37° C. on the stage of a fluorescence microscope (Zeiss LSM 510 META) with excitation at 488 nm and emission at 505-530 nm. After calcium probe incubation, assays were performed with 1 uM bradykinin (BK), 10 uM PepD 2-10.
Fluorescence data were normalized as F/Fmax, where Fmax represents maximal intracellular fluorescence obtained with Ca2+ released from ER with addition of THG, a Ca2+ATPase inhibitor (Bagnaresi et al. 2012). THG blocks calcium pumps that recover cytosolic calcium from the cytoplasm. Under the action of THG the cytosolic calcium reaches its maximal concentration.
The software-based analysis allowed fluorescence imaging in the whole field or in a selected cell as a function of time (Image J 1.47h, NIH, USA). This was accomplished by defining areas of interest (e.g., an entire cell) on a given image frame and directing the software to construct a graphical representation of intensity over time (GraphPad Software 6 Prisma). Individual traces for typical 15 cells responses represent the intracellular calcium fluorescence changes in the analyzed cell population (Lungato et al. 2012).

[1] = system: Human umbilical vein endothelial cells (HUVEC); assay: In vitro angiogenesis assay on Matrigel (HUVEC); type: cell-based
Protocol: The angiogenesis assay was performed according to the protocol described in Paschoalin T, et al (2007).
Human umbilical vein endothelial cells (HUVEC) were maintained in complete RPMI 1640 medium, pH 7.2, supplemented with 10 mM N-2-hydroxyethylpiperazine-N′-2-ethanesulphonic acid (HEPES), 24 mM sodium bicarbonate, 10% heat-inactivated fetal calf serum (FCS) from Gibco (Minneapolis, Minn., USA) and 40 μg/mL gentamicin sulfate (Hipolabor Farmacéutica, Sabará, MG, Brazil).
In vitro angiogenesis assay on Matrigel was performed as described previously (Paschoalin et al, 2007). Briefly, BD Matrigel Matrix (B&D Biosciences, Bedford, Mass., USA) was thawed on ice, distributed in 96-well plates (50 μL per well) and allowed to polymerize for 1 h at 37° C. HUVECs (15×10^3 cells/well) were suspended in 100 μL of RPMI medium supplemented with 2% of FCS and added to each well in the presence of peptides with possible angiogenic activity. Angiogenic stimulators and inhibitors can be incubated with the cells before adding on the Matrigel if necessary. The plates were incubated at 37° C. for 18 h and then images were captured at 8× magnification with a Sony Cyber-shot camera coupled to a light inverted microscope. The number of pro-angiogenic structures (closed rings arising from dendritic extensions of endothelial cells) was counted from 4 different wells, and the average value was determined for each sample.
When stimulated by angiogenic factors, like BK, HUVEC cells undergo the development of pro-angiogenic structures and it allows studying angiogenic or anti-angiogenic molecules. The number of pro-angiogenic structures is counted and compared to a control and to BK. Generally, peptides of the invention derived from VEGF-A were named PepA, peptides from VEGF-C were named PepC, peptides from VEGF-D were named PepD and peptides from Placental Growth Factor were named PepPl.
* p<0.05, Student's “t” test, when comparing the mean number of pro-angiogenic structures from […] different wells of HUVEC cultures to the control.

[2] = FIG. 5E, peptide 10 μM, in the presence of B1 receptor antagonist DesArg9-Leu8-BK
[3] = FIG. 2 and 3, peptide at 10 μM, compared to BK 1 μM and control without peptide
[4] = FIG. 4A/4B, 1 μM and 10 μM, 24 h after initial stimulus

Sequence: FSPSCVSLLR [PepPl 1-10, derived from Placental Growth Factor]
- Cell fluorescence due to calcium entry in the cytoplasm of HUVEC (HUVEC cells; [2]): induces an increase in cell fluorescence
- Duration of transient fluorescence increase (cytoplasmic calcium increase) (HUVEC cells; [2]): around 5 minutes

Sequence: KPPCVNVFR [PepD 2-10, derived from VEGF-D]
- Bradykinin receptor activity indicated by calcium entry data (HUVEC cells; peptide 10 μM): B2 agonist
- Bradykinin receptor activity indicated by calcium entry data (HUVEC cells; peptide 10 μM, listed as PepD2-10): B1 bradykinin receptor activation
- Cytoplasmic calcium in HUVEC (Fluo-3 fluorescence) (HUVEC cells; FIG. 5B, peptide 10 μM): induces an increase of cytoplasmatic calcium
- Calcium entry induced by the peptide after previous addition of B2 receptor antagonist HOE140 (HUVEC cells; FIG. 5C, HOE 140 10 μM for 10 min before peptide 10 μM): does not block calcium entry but clearly shows a disruption in the pattern of calcium increase
- Calcium entry induced by the peptide after previous addition of B1 receptor antagonist DesArg9-Leu8-BK (HUVEC cells; FIG. 5D, DesArg9-Leu8-BK 10 μM for 10 min before peptide 10 μM): completely blocks the effect of PepD 2-10
- Effect on HUVEC angiogenesis assay (number of pro-angiogenic structures) ([1]; FIG. 1, tested at 1 μM, 10 μM and 50 μM, effect at 1 and 10 μM, compared to control): pro-angiogenic effect
- Induction of angiogenesis in HUVEC angiogenesis assay [1, 3]: able to induce angiogenesis

Sequence: KPPCVSVYR [PepC 2-10, derived from VEGF-C]
- Induction of angiogenesis in HUVEC angiogenesis assay [1, 4]: able to induce angiogenesis

Sequence: FKPSCVPLM [PepA 1-9, derived from VEGF-A]
- Induction of angiogenesis in HUVEC angiogenesis assay [1, 3]: able to induce angiogenesis

Sequence: KPSCVPLM [PepA 2-9, derived from VEGF-A]
- Induction of angiogenesis in HUVEC angiogenesis assay [1, 3]: able to induce angiogenesis

Sequence: FKPPCVSVYR [PepC 1-10, derived from VEGF-C]
- Induction of angiogenesis in HUVEC angiogenesis assay ([1]; FIG. 4C, 0.1, 1.0 and 10 μM, 24 h after initial stimulus): able to induce angiogenesis

Sequence: FKPPCVNVF [PepD 1-9, derived from VEGF-D]
- Induction of angiogenesis in HUVEC angiogenesis assay [1, 3]: able to induce angiogenesis

Sequence: FKPPCVNVFR [PepD 1-10, derived from VEGF-D]
- Induction of angiogenesis in HUVEC angiogenesis assay [1, 3]: able to induce angiogenesis

Sequence: KPPCVSVY [PepC 2-9, derived from VEGF-C]
- Induction of angiogenesis in HUVEC angiogenesis assay [1, 4]: able to induce angiogenesis
